In US12194071B2, “Methods and compositions with purified Bombyx mori cocoon silk peptide fiber and refined Buglossoides arvensis seed oil providing anti-inflammatory effects and neuroprotection for disease states” (Brain Health Holding LLC, priority 2019, dated 2025):

What was measured:
TNF-α = assay: LPS-induced TNF-α production in RAW264.7 cells (ELISA); assay type: cell-based, mouse; conditions: for reduction in LPS-induced TNF-α production, RAW264.7 cells: omega-3/omega-6 study with DHA EE, EPA EE, SDA EE (toxic amount of SDA EE); for reduction in LPS-induced TNF-α production: study challenging RAW264.7 cells in 3 batches
Experimental: RAW264.7 cells were seeded in 96 well plates at a density of 20,000 cells/well. On day 2, the cells were serum starved for 24 h in DMEM. Then, the cells were pre-treated with 60 μg/ml of Peptylin® alone or in combination with 50 μM or 100 μM NeurXcel® EE diluted in DMEM. Appropriate vehicle controls have been included, i.e. 0.5% EtOH+1.2% H2O. On day 4 the cells were LPS-induced (500 ng/ml) for 1.5 h and the supernatants were collected. A WST-8 assay was performed to measure cell viability and the supernatants were used for an ELISA assay to measure TNF-α levels. All the experiments were carried out with 9 replicates (for control and LPS treated cells) or 24 replicates (for cells treated with NX and/or PT). A t-test was used to compare the media of TNF-α levels between the treatment of NX alone and in combination with PT.
3.4 Experimental procedure RAW264.7 cells were seeded in 96-well plates at a density of 20,000 cells/well in DMEM+10% FBS. The next day, the cells were washed once with DPBS and serum starved for 24 h in 150 μL of DMEM. Then, the cells were treated with 150 μL of 60 μg/ml of Peptylin® and 100 or 50 μM NeurXcel® EE that were used either alone or in combination. Appropriate vehicle controls were also included in the assay, i.e. 0.5% ethanol+1.2% H2O. After 24 h, the cells were incubated for 1.5 h with 10 μL of LPS (7500 ng/ml) to reach a final concentration of 500 ng/ml. After the incubation, the supernatants were collected and a WST-8 assay was carried out. CCK-8 reagent (WST-8) was diluted 1:10 in DMEM media and 100 μL were added to each well and the plate was incubated at 37° C. After 15 minutes the absorbance was measured at 450 nm using the Synergy II microplate reader. WST-8 is bioreduced by cellular dehydrogenases to an orange formazan product that is soluble in tissue culture medium. The amount of formazan produced is directly proportional to the number of living cells. The ELISA assay was performed following the manufacturer's instructions. The TNF-α levels produced under each condition were normalized to the corresponding vehicle control (with or without EtOH). All the experiments were carried out with 9 replicates (for control and LPS treated cells) or 24 replicates (for cells treated with NX and/or PT). […] Using Microsoft Excel the following formula was used to calculate the p-value: =T.TEST (array1, array2, tails, type), where array1 corresponds to the TNF-α values for one treatment, array2 corresponds to TNF-α values for the co-treatment, one-tail test has been considered and type is 2 (two sample equal variance t-test). A p-value of 0.05 was used as the cutoff for significance.
After the treatments, the supernatants were collected and an ELISA assay was performed. First, the standard curve was generated (FIG. 43).
The TNF-α standard was measured in 8 serial 1:2 dilutions ranging from 0-4000 pg/ml. TNF-α production was measured by ELISA. Control: cells maintained in DMEM; LPS: LPS-induced cells in DMEM+0.5% EtOH+1.2% H2O; PT: cells pre-treated with 60 μg/ml of Peptylin® for 24 h; 50 NX and 100 NX: cells treated with 50 or 100 μM NX for 24 h; 50NX+PT and 100NX+PT: cells pre-treated with 50 or 100 μM NX and 60 μg/ml PT for 24 h. Then the cells were induced with 500 ng/ml LPS for 1.5 h. The data represent the mean±SD of an experiment performed in nine replicates (for Cntr and LPS) or 24 replicates (for PT and NX treatments). NS: non-significant; *** p<0.001.

[1] = test system: Reactive Oxygen Species (ROS) within SH-SY5Y neuroblastoma cells; assay: H2O2-induced Reactive Oxygen Species generation in SH-SY5Y cells (DCF-DA); assay type: cell-based, human; conditions: Example 12
Experimental: Reactive Oxygen Species (ROS) within cells can be quantified by indexing using the fluorescent probe 2′,7′-dichlorofluroescin diacetate (DCF-DA) (Sigma-Aldrich, USA). When oxidized to the reactive oxygen metabolite, the DCF-DA can be excited at 485 nm and releases fluorescence at 530 nm.
SH-SY5Y neuroblastoma cells were incubated with 100 μl of 10% 1-BS/MEM in a 5×10^4 cells/well 96-well plate and cultured 24 hours, as in Example 1. The 10% FBS/MEM was removed and 1% FBS/MEM added to the cells. Composition A, B, C, D, or E was administered, and then DCF-DA in keeping with the DCF-DA assay described above.
After 4 hours, a 0.25 uM solution of H2O2 (a toxicity-inducing substance) was administered. Incubation time was for 2 hours before fluorescence test. Subsequently, fluorescence was measured at 530 nm to assess the level of active oxygen production.
In Examples 8 and 9, SH-SY5Y cells were exposed in separate, parallel models to H2O2 and FeSO4 to induce controlled cell death, but instead of analyzing cell viability in the presence of various active compounds, reactive oxygen species (ROS) generation was measured in the presence of various formulations, following peer-reviewed published methods. […]
Reactive oxygen species generation induced by H2O2 was measured by incubation with a fluorescent probe 2′,7′-dichlorofluorescin diacetate (DCF-DA). […]

TNF-alpha = assay: LPS-induced TNF-alpha production in BV-2 cells; assay type: cell-based; conditions: compared with LPS controls

| Compound | reduction in LPS-induced TNF-α production, RAW264.7 cells (TNF-α) | reduction in LPS-induced TNF-α production (TNF-α) | further results |
| --- | --- | --- | --- |
| CC/C=C\C/C=C\C/C=C\C/C=C\C/C=C\C/C=C\CCC(=O)OCC [DHA EE] | 21-42% | – | – |
| CC(=O)N[C@@H](CS)C(=O)O [NAC, N-Acetyl-L-cysteine] | – | – | restoration of SH-SY5Y cells (positive control group) [1]: restored to normal levels |
| CC/C=C\C/C=C\C/C=C\C/C=C\CCCCC(=O)OCC [SDA EE] | 35-71% | 16-24% | – |
| CCCCC/C=C\C/C=C\C/C=C\CCCCCCC(=O)OCC [DGLA EE] | – | 11-18% | – |
| CC/C=C\C/C=C\C/C=C\C/C=C\C/C=C\CCCC(=O)OCC [EPA EE, eicosapentaenoic acid, ethyl ester] | 32% | – | reduction in LPS-induced TNF-alpha production, BV-2 cells (TNF-alpha; another study): 18%; reduction in LPS-induced TNF-alpha production, BV-2 cells (TNF-alpha; study in which EPA EE gave 25%): 25%; reduction in LPS-induced TNF-alpha production, BV-2 cells (TNF-alpha; third study): 27-33% |
